Laboratory results taken from ChEMBL document CHEMBL3792284, “Synthesis of triazoloquinazolinone based compounds as tubulin polymerization inhibitors and vascular disrupting agents” (Eur J Med Chem, 2016).
pIC50: −log10 of the molar value.

Tests used:
Tubulin = Tubulin (Bos taurus, UniProt Q6B856+Q862L2+Q862F3); test: Inhibition of bovine tubulin polymerization after 1 hr by fluorescence spectrometry; type: protein assay
HT-29 [1] = test: Antiproliferative activity against human HT-29 cells at 10 uM after 72 hrs by MTS assay; type: functional; conditions: HT-29, 72 h
[2] = Growth inhibition of human HL-60(TB) cells at 10 uM after 48 hrs by sulforhodamine B assay; type: functional; conditions: HL-60, 48 h, read-out: GI
K562 [3] = test: Growth inhibition of human K562 cells at 10 uM after 48 hrs by sulforhodamine B assay; type: functional; conditions: K562, 48 h, read-out: GI
SR [4] = test: Growth inhibition of human SR cells at 10 uM after 48 hrs by sulforhodamine B assay; type: functional; conditions: read-out: GI
A549 [5] = test: Growth inhibition of human A549/ATCC cells at 10 uM after 48 hrs by sulforhodamine B assay; type: functional; conditions: A549, 48 h, read-out: GI
[6] = Growth inhibition of human HOP62 cells at 10 uM after 48 hrs by sulforhodamine B assay; type: functional; conditions: HOP-62, 48 h, read-out: GI
NCI-H522 [7] = test: Growth inhibition of human NCI-H522 cells at 10 uM after 48 hrs by sulforhodamine B assay; type: functional; conditions: NCI-H522, 48 h, read-out: GI
[8] = Growth inhibition of human HCT116 cells at 10 uM after 48 hrs by sulforhodamine B assay; type: functional; conditions: HCT-116, 48 h, read-out: GI
[9] = Growth inhibition of human HCT15 cells at 10 uM after 48 hrs by sulforhodamine B assay; type: functional; conditions: HCT-15, 48 h, read-out: GI
HT-29 [10] = test: Growth inhibition of human HT-29 cells at 10 uM after 48 hrs by sulforhodamine B assay; type: functional; conditions: HT-29, 48 h, read-out: GI
[11] = Growth inhibition of human SF295 cells at 10 uM after 48 hrs by sulforhodamine B assay; type: functional; conditions: SF-295, 48 h, read-out: GI
[12] = Growth inhibition of human SNB75 cells at 10 uM after 48 hrs by sulforhodamine B assay; type: functional; conditions: SNB-75, 48 h, read-out: GI
U-251 [13] = test: Growth inhibition of human U251 cells at 10 uM after 48 hrs by sulforhodamine B assay; type: functional; conditions: U-251, 48 h, read-out: GI
[14] = Growth inhibition of human NCI-ADR-RES cells at 10 uM after 48 hrs by sulforhodamine B assay; type: functional; conditions: read-out: GI
A498 = test: Growth inhibition of human A498 cells at 10 uM after 48 hrs by sulforhodamine B assay; type: functional; conditions: A498, 48 h, read-out: GI
[15] = Growth inhibition of human Caki1 cells at 10 uM after 48 hrs by sulforhodamine B assay; type: functional; conditions: CAKI-1, 48 h, read-out: GI
[16] = Growth inhibition of human DU145 cells at 10 uM after 48 hrs by sulforhodamine B assay; type: functional; conditions: DU-145, 48 h, read-out: GI
MCF7 [17] = test: Growth inhibition of human MCF7 cells at 10 uM after 48 hrs by sulforhodamine B assay; type: functional; conditions: MCF7, 48 h, read-out: GI
MDA-MB-468 [18] = test: Growth inhibition of human MDA-MB-468 cells at 10 uM after 48 hrs by sulforhodamine B assay; type: functional; conditions: MDA-MB-468, 48 h, read-out: GI
K562 [19] = test: Growth inhibition of human K562 cells after 48 hrs by sulforhodamine B assay; type: functional; conditions: K562, 48 h
SR [20] = test: Growth inhibition of human SR cells after 48 hrs by sulforhodamine B assay; type: functional
A549 [21] = test: Growth inhibition of human A549/ATCC cells after 48 hrs by sulforhodamine B assay; type: functional; conditions: A549, 48 h
[22] = Growth inhibition of human HOP62 cells after 48 hrs by sulforhodamine B assay; type: functional; conditions: HOP-62, 48 h
NCI-H522 [23] = test: Growth inhibition of human NCI-H522 cells after 48 hrs by sulforhodamine B assay; type: functional; conditions: NCI-H522, 48 h
[24] = Growth inhibition of human COLO205 cells after 48 hrs by sulforhodamine B assay; type: functional; conditions: COLO 205, 48 h
[25] = Growth inhibition of human HCT116 cells after 48 hrs by sulforhodamine B assay; type: functional; conditions: HCT-116, 48 h
[26] = Growth inhibition of human HCT15 cells after 48 hrs by sulforhodamine B assay; type: functional; conditions: HCT-15, 48 h
HT-29 [27] = test: Growth inhibition of human HT-29 cells after 48 hrs by sulforhodamine B assay; type: functional; conditions: HT-29, 48 h
[28] = Growth inhibition of human SF295 cells after 48 hrs by sulforhodamine B assay; type: functional; conditions: SF-295, 48 h
[29] = Growth inhibition of human SNB75 cells after 48 hrs by sulforhodamine B assay; type: functional; conditions: SNB-75, 48 h
U-251 [30] = test: Growth inhibition of human U251 cells after 48 hrs by sulforhodamine B assay; type: functional; conditions: U-251, 48 h
SK-MEL-5 = test: Growth inhibition of human SK-MEL-5 cells after 48 hrs by sulforhodamine B assay; type: functional; conditions: SK-MEL-5, 48 h
[31] = Growth inhibition of human OVCAR3 cells after 48 hrs by sulforhodamine B assay; type: functional; conditions: OVCAR-3, 48 h
[32] = Growth inhibition of human NCI-ADR-RES cells after 48 hrs by sulforhodamine B assay; type: functional
[33] = Growth inhibition of human Caki1 cells after 48 hrs by sulforhodamine B assay; type: functional; conditions: CAKI-1, 48 h
[34] = Growth inhibition of human DU145 cells after 48 hrs by sulforhodamine B assay; type: functional; conditions: DU-145, 48 h
MCF7 [35] = test: Growth inhibition of human MCF7 cells after 48 hrs by sulforhodamine B assay; type: functional; conditions: MCF7, 48 h
MDA-MB-468 [36] = test: Growth inhibition of human MDA-MB-468 cells after 48 hrs by sulforhodamine B assay; type: functional; conditions: MDA-MB-468, 48 h
NCI-H522 [37] = test: Cytotoxicity against human NCI-H522 cells assessed as cell growth at 10 uM after 48 hrs by sulforhodamine B assay; type: functional; conditions: NCI-H522, 48 h, read-out: Activity
MDA-MB-435 = test: Cytotoxicity against human MDA-MB-435 cells assessed as cell growth at 10 uM after 48 hrs by sulforhodamine B assay; type: functional; conditions: MDA-MB-435, 48 h, read-out: Activity
[38] = Cytotoxicity against human OVCAR3 cells assessed as cell growth at 10 uM after 48 hrs by sulforhodamine B assay; type: functional; conditions: OVCAR-3, 48 h, read-out: Activity
HUVEC [39] = test: Inhibition of cell invasion of HUVEC after 24 hrs by crystal violet staining based Boyden chamber assay; type: functional; conditions: Homo sapiens
HUVEC [40] = test: Inhibition of cell invasion of HUVEC at 1 uM after 24 hrs by crystal violet staining based Boyden chamber assay; type: functional; conditions: Homo sapiens
HUVEC [41] = test: Antiangiogenic activity in HUVEC assessed as disruption of capillaries after 6 hrs by inverted microscopic analysis; type: functional, cell-based; conditions: Homo sapiens
HUVEC [42] = test: Cytotoxicity against HUVEC assessed as inhibition of cell proliferation after 72 hrs by MTS assay; type: cell-based; conditions: Homo sapiens
HUVEC [43] = test: Cytotoxicity against HUVEC at 1 uM after 72 hrs by MTS assay; type: cell-based; conditions: human

## COc1ccc(-c2nnc3n(C)c(=O)c4ccccc4n23)cc1O
Tubulin
  IC50: 150 nM
HT-29 [1]
  inhibition at 10 µM: 71%
[2]
  inhibition of growth at 10 µM: 100%
K562 [3]
  inhibition of growth at 10 µM: 92%
SR [4]
  inhibition of growth at 10 µM: 95%
A549 [5]
  inhibition of growth at 10 µM: 82%
[6]
  inhibition of growth at 10 µM: 90%
NCI-H522 [7]
  inhibition of growth at 10 µM: 100%
[8]
  inhibition of growth at 10 µM: 86%
[9]
  inhibition of growth at 10 µM: 81%
HT-29 [10]
  inhibition of growth at 10 µM: 81%
[11]
  inhibition of growth at 10 µM: 93%
[12]
  inhibition of growth at 10 µM: 88%
U-251 [13]
  inhibition of growth at 10 µM: 82%
[14]
  inhibition of growth at 10 µM: 85%
A498
  inhibition of growth at 10 µM: 66%
[15]
  inhibition of growth at 10 µM: 66%
[16]
  inhibition of growth at 10 µM: 81%
MCF7 [17]
  inhibition of growth at 10 µM: 85%
MDA-MB-468 [18]
  inhibition of growth at 10 µM: 70%
K562 [19]
  GI50: 40 nM
SR [20]
  GI50: 31 nM
A549 [21]
  GI50: 1840 nM
[22]
  GI50: 48 nM
NCI-H522 [23]
  GI50: 31 nM
[24]
  GI50: 3820 nM
[25]
  GI50: 57 nM
[26]
  GI50: 52 nM
HT-29 [27]
  GI50: 4310 nM
[28]
  GI50: 1990 nM
[29]
  GI50: 41 nM
U-251 [30]
  GI50: 125 nM
SK-MEL-5
  GI50: 59 nM
[31]
  GI50: 45 nM
[32]
  GI50: 62 nM
[33]
  GI50: 1220 nM
[34]
  GI50: 2360 nM
MCF7 [35]
  GI50: 48 nM
MDA-MB-468 [36]
  GI50: 4330 nM
NCI-H522 [37]
  growth at 10 µM: 5%
MDA-MB-435
  growth at 10 µM: 62%
[38]
  growth at 10 µM: 16%
HUVEC [39]
  inhibition: Dose-dependent effect
HUVEC [40]
  inhibition at 1 µM: 89%
HUVEC [41]
  Activity: Dose-dependent effect
HUVEC [42]
  pIC50: 5.61
HUVEC [43]
  Activity: Non-toxic
